Earlier results in article PMC11070408, “Bifunctional octadentate pseudopeptides as Zirconium-89 chelators for immuno-PET applications” (EJNMMI Radiopharmacy and Chemistry, 2024).

Design: method as in Sarbisheh and Salih [2020]
Conditions: ref Sarbisheh and Salih [2020]

solubility in water: poor
SMILES: CC(=O)N(O)CCCCCNC(=O)CCC(=O)N(O)CCCCCNC(=O)CCC(=O)N(O)CCCCCNC(=O)CCC(=O)NCC(CNC(=O)CCC(=O)NCCCCCN(O)C(=O)CCC(=O)NCCCCCN(O)C(=O)CCC(=O)NCCCCCN(O)C(C)=O)Cc1ccc([N+](=O)[O-])cc1 [DFO2]
